# Measurements reported in ChEMBL document CHEMBL1909602, “Design and synthesis of novel triazole antifungal derivatives by structure-based bioisosterism” (Eur J Med Chem, 2011).
# Assays:
# Pichia kudriavzevii = test: Antifungal activity against Candida krusei ATCC 6258 after 24 hrs by serial dilution method; assay type: functional; settings: ATCC 6258, 24 h
# Aspergillus fumigatus = test: Antifungal activity against Aspergillus fumigatus 7544 after 7 days by serial dilution method; assay type: functional; settings: Aspergillus fumigatus, 7544, 168 h
# Candida albicans = test: Antifungal activity against Candida albicans Y0109 after 24 hrs by serial dilution method; assay type: functional; settings: Y0109, 24 h
# Candida parapsilosis = test: Antifungal activity against Candida parapsilosis ATCC 22019 after 24 hrs by serial dilution method; assay type: functional; settings: Lodderomyces parapsilosis, ATCC 22019, 24 h
# Candida tropicalis = test: Antifungal activity against Candida tropicalis 087 after 24 hrs by serial dilution method; assay type: functional; settings: Candida tropicalis, 087, 24 h
# [1] = Hydrophobicity, Log P of the compound; assay type: physicochemical; settings: octanol/water
# Cryptococcus neoformans = test: Antifungal activity against Cryptococcus neoformans 32609 after 72 hrs by serial dilution method; assay type: functional; settings: Cryptococcus neoformans, 32609, 72 h
Structure (SMILES),MIC80 (Pichia kudriavzevii),MIC80 (Aspergillus fumigatus),MIC80 (Candida albicans),MIC80 (Candida parapsilosis),MIC80 (Candida tropicalis),logP [1],MIC80 (Cryptococcus neoformans)
CCOc1ccc(-n2cnn(CCCN3CCN(CC(O)(Cn4cncn4)c4ccc(F)cc4F)CC3)c2=O)cc1 (racemic),1 µg/mL,> 64 µg/mL,0.25 µg/mL,1 µg/mL,1 µg/mL,2.25,8 µg/mL
Cc1ccc(-n2cnn(CCCN3CCN(CC(O)(Cn4cncn4)c4ccc(F)cc4F)CC3)c2=O)c(C)c1 (racemic),1 µg/mL,> 64 µg/mL,1 µg/mL,1 µg/mL,1 µg/mL,2.65,8 µg/mL
O=c1n(-c2ccc(I)cc2)cnn1CCCN1CCN(CC(O)(Cn2cncn2)c2ccc(F)cc2F)CC1 (racemic),0.25 µg/mL,8 µg/mL,0.25 µg/mL,0.25 µg/mL,0.25 µg/mL,2.57,4 µg/mL
O=c1n(-c2ccc(F)c(Cl)c2)cnn1CCCN1CCN(CC(O)(Cn2cncn2)c2ccc(F)cc2F)CC1 (racemic),0.25 µg/mL,4 µg/mL,0.0625 µg/mL,0.25 µg/mL,0.0625 µg/mL,2.65,1 µg/mL
Cc1cc(C)cc(-n2cnn(CCCN3CCN(CC(O)(Cn4cncn4)c4ccc(F)cc4F)CC3)c2=O)c1 (racemic),1 µg/mL,8 µg/mL,0.25 µg/mL,1 µg/mL,0.25 µg/mL,2.65,4 µg/mL
Cc1ccc(C)c(-n2cnn(CCCN3CCN(CC(O)(Cn4cncn4)c4ccc(F)cc4F)CC3)c2=O)c1 (racemic),1 µg/mL,> 64 µg/mL,0.25 µg/mL,1 µg/mL,0.25 µg/mL,2.65,8 µg/mL
O=c1n(-c2ccc(F)cc2)cnn1CCCN1CCN(CC(O)(Cn2cncn2)c2ccc(F)cc2F)CC1 (racemic),> 64 µg/mL,> 64 µg/mL,0.25 µg/mL,1 µg/mL,0.25 µg/mL,2.02,> 64 µg/mL
O=c1n(-c2cccc(Cl)c2)cnn1CCCN1CCN(CC(O)(Cn2cncn2)c2ccc(F)cc2F)CC1 (racemic),> 64 µg/mL,16 µg/mL,0.0625 µg/mL,0.25 µg/mL,0.0625 µg/mL,2.54,4 µg/mL
Cc1cccc(C)c1-n1cnn(CCCN2CCN(CC(O)(Cn3cncn3)c3ccc(F)cc3F)CC2)c1=O (racemic),1 µg/mL,> 64 µg/mL,1 µg/mL,4 µg/mL,0.25 µg/mL,2.65,> 64 µg/mL
O=c1n(-c2ccc(Cl)c(Cl)c2)cnn1CCCN1CCN(CC(O)(Cn2cncn2)c2ccc(F)cc2F)CC1 (racemic),0.25 µg/mL,4 µg/mL,0.0625 µg/mL,0.25 µg/mL,0.0625 µg/mL,3.17,1 µg/mL
Cc1ccc(-n2cnn(CCCN3CCN(CC(O)(Cn4cncn4)c4ccc(F)cc4F)CC3)c2=O)cc1 (racemic),1 µg/mL,> 64 µg/mL,0.25 µg/mL,1 µg/mL,0.25 µg/mL,2.28,8 µg/mL
O=c1n(-c2ccc(Cl)cc2)cnn1CCCN1CCN(CC(O)(Cn2cncn2)c2ccc(F)cc2F)CC1 (racemic),0.25 µg/mL,8 µg/mL,0.0625 µg/mL,0.25 µg/mL,0.25 µg/mL,2.54,4 µg/mL
O=c1n(-c2ccc(Br)cc2)cnn1CCCN1CCN(CC(O)(Cn2cncn2)c2ccc(F)cc2F)CC1 (racemic),1 µg/mL,8 µg/mL,0.25 µg/mL,0.25 µg/mL,0.25 µg/mL,2.61,4 µg/mL
CC(C)(C)c1ccc(-n2cnn(CCCN3CCN(CC(O)(Cn4cncn4)c4ccc(F)cc4F)CC3)c2=O)cc1 (racemic),0.25 µg/mL,1 µg/mL,0.25 µg/mL,0.25 µg/mL,0.25 µg/mL,3.59,1 µg/mL
Cc1cccc(-n2cnn(CCCN3CCN(CC(O)(Cn4cncn4)c4ccc(F)cc4F)CC3)c2=O)c1 (racemic),1 µg/mL,8 µg/mL,0.25 µg/mL,1 µg/mL,0.25 µg/mL,2.28,8 µg/mL
OC(Cn1cncn1)(Cn1cncn1)c1ccc(F)cc1F [FLUCONAZOLE],0.25 µg/mL,> 64 µg/mL,0.25 µg/mL,1 µg/mL,0.0625 µg/mL,,16 µg/mL
Cc1ccc(-n2cnn(CCCN3CCN(CC(O)(Cn4cncn4)c4ccc(F)cc4F)CC3)c2=O)cc1[N+](=O)[O-] (racemic),> 64 µg/mL,> 64 µg/mL,0.25 µg/mL,1 µg/mL,0.25 µg/mL,2.11,16 µg/mL
Cc1ccc(-n2cnn(CCCN3CCN(CC(O)(Cn4cncn4)c4ccc(F)cc4F)CC3)c2=O)cc1Cl (racemic),0.25 µg/mL,4 µg/mL,0.0625 µg/mL,0.25 µg/mL,0.25 µg/mL,2.91,1 µg/mL
O=c1n(-c2ccccc2F)cnn1CCCN1CCN(CC(O)(Cn2cncn2)c2ccc(F)cc2F)CC1 (racemic),> 64 µg/mL,> 64 µg/mL,0.25 µg/mL,1 µg/mL,1 µg/mL,2.02,> 64 µg/mL
Cc1ccc(-n2cnn(CCCN3CCN(CC(O)(Cn4cncn4)c4ccc(F)cc4F)CC3)c2=O)cc1C (racemic),1 µg/mL,8 µg/mL,0.25 µg/mL,0.25 µg/mL,0.25 µg/mL,2.65,4 µg/mL
O=c1n(-c2ccccc2)cnn1CCCN1CCN(CC(O)(Cn2cncn2)c2ccc(F)cc2F)CC1 (racemic),1 µg/mL,> 64 µg/mL,0.25 µg/mL,1 µg/mL,1 µg/mL,1.92,8 µg/mL
